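These data come from cells grown in 96-well plates and exposed to compound for 48 hours at five concentrations. Definition used: TGI = concentration required for complete inhibition of growth.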
Columns and labels:
Assay in all cases: inhibition of tumour cell growth, NCI panel, 48 h
A498 renal = tested on: A498 renal
NCI-H23 lung = tested on: NCI-H23 lung
SNB-19 CNS = tested on: SNB-19 CNS
M14 melanoma = tested on: M14 melanoma
RXF 393 renal = tested on: RXF 393 renal
KM20L2 colon = tested on: KM20L2 colon
HL-60(TB) leukemia = tested on: HL-60(TB) leukemia
DMS 114 small cell lung = tested on: DMS 114 small cell lung
M19-MEL melanoma = tested on: M19-MEL melanoma
UO-31 renal = tested on: UO-31 renal
SF-295 CNS = tested on: SF-295 CNS
TK-10 renal = tested on: TK-10 renal
LXFL 529 NSCLC = tested on: LXFL 529 NSCLC
DMS 273 small cell lung = tested on: DMS 273 small cell lung
OVCAR-3 ovarian = tested on: OVCAR-3 ovarian
SK-MEL-2 melanoma = tested on: SK-MEL-2 melanoma
OVCAR-4 ovarian = tested on: OVCAR-4 ovarian
HOP-18 NSCLC = tested on: HOP-18 NSCLC
U251 CNS = tested on: U251 CNS
SW-620 colon = tested on: SW-620 colon
DLD-1 colon = tested on: DLD-1 colon
K-562 leukemia = tested on: K-562 leukemia
NCI-H460 lung = tested on: NCI-H460 lung
CCRF-CEM leukemia = tested on: CCRF-CEM leukemia
EKVX NSCLC = tested on: EKVX NSCLC
HCT-116 colon = tested on: HCT-116 colon
UACC-257 melanoma = tested on: UACC-257 melanoma
HOP-92 NSCLC = tested on: HOP-92 NSCLC
CAKI-1 renal = tested on: CAKI-1 renal
MOLT-4 leukemia = tested on: MOLT-4 leukemia
SNB-78 CNS = tested on: SNB-78 CNS
UACC-62 melanoma = tested on: UACC-62 melanoma
COLO 205 colon = tested on: COLO 205 colon
SF-539 CNS = tested on: SF-539 CNS
OVCAR-8 ovarian = tested on: OVCAR-8 ovarian
HOP-62 NSCLC = tested on: HOP-62 NSCLC
XF 498 CNS = tested on: XF 498 CNS
HCT-15 colon = tested on: HCT-15 colon
SK-MEL-28 melanoma = tested on: SK-MEL-28 melanoma
SK-OV-3 ovarian = tested on: SK-OV-3 ovarian
ACHN renal = tested on: ACHN renal
SN12C renal = tested on: SN12C renal
A549 NSCLC = tested on: A549 NSCLC
HT29 colon = tested on: HT29 colon
IGROV1 ovarian = tested on: IGROV1 ovarian
OVCAR-5 ovarian = tested on: OVCAR-5 ovarian
SF-268 CNS = tested on: SF-268 CNS
SK-MEL-5 melanoma = tested on: SK-MEL-5 melanoma
RPMI-8226 leukemia = tested on: RPMI-8226 leukemia
786-0 renal = tested on: 786-0 renal
MALME-3M melanoma = tested on: MALME-3M melanoma
SNB-75 CNS = tested on: SNB-75 CNS
KM12 colon = tested on: KM12 colon
NCI-H522 lung = tested on: NCI-H522 lung
LOX IMVI melanoma = tested on: LOX IMVI melanoma

SMILES: COc1ccc(C2N3CCCCC3[C@@H]3c4[nH]c5ccccc5c4CCN23)c(OC)c1 (some centres not stated)
- TGI (A498 renal): 30.1 µM
- TGI (NCI-H23 lung): 58.7 µM
- TGI (SNB-19 CNS): > 100 µM
- TGI (M14 melanoma): 30.5 µM
- TGI (RXF 393 renal): 34.6 µM
- TGI (KM20L2 colon): 41.9 µM
- TGI (HL-60(TB) leukemia): 42 µM
- TGI (DMS 114 small cell lung): 38.4 µM
- TGI (M19-MEL melanoma): 37.4 µM
- TGI (UO-31 renal): 74.1 µM
- TGI (SF-295 CNS): > 100 µM
- TGI (TK-10 renal): 69.1 µM
- TGI (LXFL 529 NSCLC): 49.9 µM
- TGI (DMS 273 small cell lung): 34.3 µM
- TGI (OVCAR-3 ovarian): 85.3 µM
- TGI (SK-MEL-2 melanoma): 34.7 µM
- TGI (OVCAR-4 ovarian): 56.5 µM
- TGI (HOP-18 NSCLC): > 100 µM
- TGI (U251 CNS): > 100 µM
- TGI (SW-620 colon): > 100 µM
- TGI (DLD-1 colon): > 100 µM
- TGI (K-562 leukemia): > 100 µM
- TGI (NCI-H460 lung): 50.2 µM
- TGI (CCRF-CEM leukemia): 63.3 µM
- TGI (EKVX NSCLC): > 100 µM
- TGI (HCT-116 colon): 38 µM
- TGI (UACC-257 melanoma): 72.4 µM
- TGI (HOP-92 NSCLC): > 100 µM
- TGI (CAKI-1 renal): > 100 µM
- TGI (MOLT-4 leukemia): 49.9 µM
- TGI (SNB-78 CNS): 49 µM
- TGI (UACC-62 melanoma): 31 µM
- TGI (COLO 205 colon): 43.2 µM
- TGI (SF-539 CNS): 35.2 µM
- TGI (OVCAR-8 ovarian): > 100 µM
- TGI (HOP-62 NSCLC): > 100 µM
- TGI (XF 498 CNS): 28.2 µM
- TGI (HCT-15 colon): > 100 µM
- TGI (SK-MEL-28 melanoma): 36.9 µM
- TGI (SK-OV-3 ovarian): 92.3 µM
- TGI (ACHN renal): 55.2 µM
- TGI (SN12C renal): 33.8 µM
- TGI (A549 NSCLC): > 100 µM
- TGI (HT29 colon): 32.6 µM
- TGI (IGROV1 ovarian): > 100 µM
- TGI (OVCAR-5 ovarian): 79.7 µM
- TGI (SF-268 CNS): 53 µM
- TGI (SK-MEL-5 melanoma): 32.7 µM
- TGI (RPMI-8226 leukemia): 45.6 µM
- TGI (786-0 renal): > 100 µM

SMILES: C/C(=C(/C)c1cc[n+](C)cc1)c1cc[n+](C)cc1
- TGI (A498 renal): > 75 µM
- TGI (NCI-H23 lung): > 75 µM
- TGI (SNB-19 CNS): > 75 µM
- TGI (M14 melanoma): > 75 µM
- TGI (MALME-3M melanoma): > 75 µM
- TGI (RXF 393 renal): > 75 µM
- TGI (KM20L2 colon): > 75 µM
- TGI (HL-60(TB) leukemia): > 75 µM
- TGI (DMS 114 small cell lung): 50.3 µM
- TGI (UO-31 renal): > 75 µM
- TGI (SF-295 CNS): > 75 µM
- TGI (TK-10 renal): > 75 µM
- TGI (SNB-75 CNS): > 75 µM
- TGI (LXFL 529 NSCLC): > 75 µM
- TGI (DMS 273 small cell lung): > 75 µM
- TGI (OVCAR-3 ovarian): > 75 µM
- TGI (SK-MEL-2 melanoma): > 75 µM
- TGI (OVCAR-4 ovarian): > 75 µM
- TGI (HOP-18 NSCLC): > 75 µM
- TGI (U251 CNS): > 75 µM
- TGI (KM12 colon): > 75 µM
- TGI (DLD-1 colon): > 75 µM
- TGI (K-562 leukemia): > 75 µM
- TGI (NCI-H522 lung): > 75 µM
- TGI (NCI-H460 lung): > 75 µM
- TGI (CCRF-CEM leukemia): > 75 µM
- TGI (EKVX NSCLC): > 75 µM
- TGI (HCT-116 colon): > 75 µM
- TGI (UACC-257 melanoma): > 75 µM
- TGI (HOP-92 NSCLC): > 75 µM
- TGI (CAKI-1 renal): > 75 µM
- TGI (MOLT-4 leukemia): > 75 µM
- TGI (SNB-78 CNS): > 75 µM
- TGI (UACC-62 melanoma): > 75 µM
- TGI (COLO 205 colon): > 75 µM
- TGI (SF-539 CNS): > 75 µM
- TGI (OVCAR-8 ovarian): > 75 µM
- TGI (HOP-62 NSCLC): > 75 µM
- TGI (HCT-15 colon): > 75 µM
- TGI (SK-MEL-28 melanoma): > 75 µM
- TGI (SK-OV-3 ovarian): > 75 µM
- TGI (ACHN renal): > 75 µM
- TGI (SN12C renal): > 75 µM
- TGI (LOX IMVI melanoma): > 75 µM
- TGI (A549 NSCLC): > 75 µM
- TGI (HT29 colon): > 75 µM
- TGI (IGROV1 ovarian): > 75 µM
- TGI (OVCAR-5 ovarian): > 75 µM
- TGI (SF-268 CNS): > 75 µM
- TGI (SK-MEL-5 melanoma): > 75 µM
- TGI (RPMI-8226 leukemia): > 75 µM
- TGI (786-0 renal): > 75 µM
